Laboratory results published in patent publication US20230078764A1 (Yumanity Therapeutics, Inc., priority 2019, published 2023).
Read-outs that look alike come from different tables or passages of the source.

Columns and labels:
human SCD1 = target: T1, human SCD1 (Homo sapiens, UniProt O00767); experiment: Growth inhibition of yeast strain expressing human SCD1 as sole desaturase (OLE1 deleted), OD600 readout; type: cell-based; conditions: yeast strain expressing human SCD1 as sole desaturase; growth (OD600) after 40 h at 30° C.; read-out: SCD1 IC50
T1 construct: expressed in transfected cells; host or cells: yeast strain with OLE1 deleted, plasmid-borne human SCD1 (selected in SD-Ura)
T1 sequence (O00767 1-359): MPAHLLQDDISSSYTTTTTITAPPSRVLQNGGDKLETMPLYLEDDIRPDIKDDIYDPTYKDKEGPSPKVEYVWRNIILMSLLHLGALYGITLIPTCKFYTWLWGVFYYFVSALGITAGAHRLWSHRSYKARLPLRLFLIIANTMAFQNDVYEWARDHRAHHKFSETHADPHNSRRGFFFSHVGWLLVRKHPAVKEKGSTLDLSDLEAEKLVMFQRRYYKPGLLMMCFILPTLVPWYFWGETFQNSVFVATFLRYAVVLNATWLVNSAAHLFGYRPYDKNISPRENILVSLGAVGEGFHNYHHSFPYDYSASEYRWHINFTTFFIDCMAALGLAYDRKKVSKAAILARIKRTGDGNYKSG

human SCD5 = target: T2, human SCD5 (Homo sapiens, UniProt Q86SK9); experiment: Growth inhibition of yeast strain expressing human SCD5 as sole desaturase (OLE1 deleted), OD600 readout; type: cell-based
T2 construct: expressed in transfected cells; host or cells: yeast strain with OLE1 deleted, plasmid-borne human SCD5 (selected in SD-Ura)
T2 sequence (Q86SK9 1-330): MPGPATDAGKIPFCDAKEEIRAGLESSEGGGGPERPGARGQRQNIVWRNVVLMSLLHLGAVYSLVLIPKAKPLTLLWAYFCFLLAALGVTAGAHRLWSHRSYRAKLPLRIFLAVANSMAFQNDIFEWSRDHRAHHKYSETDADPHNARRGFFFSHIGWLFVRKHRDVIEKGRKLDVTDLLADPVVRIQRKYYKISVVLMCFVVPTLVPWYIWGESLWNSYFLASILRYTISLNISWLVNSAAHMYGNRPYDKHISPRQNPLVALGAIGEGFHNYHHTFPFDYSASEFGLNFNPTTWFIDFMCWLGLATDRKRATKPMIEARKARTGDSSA

[1] = yeast strain expressing human SCD5 as sole desaturase, growth (OD600) after 40 h at 30° C., read-out: SCD5 IC50

SMILES	IC50 (human SCD1) [µM]	IC50 (human SCD5; [1]) [µM]	IC50 (human SCD5; SCD5 IC50) [µM]
CN1N=C(C(=O)Nc2ccc(Cc3ccc(Cl)s3)cn2)CCC1=O [Example 21, N-(5-((5-chlorothiophen-2-yl)methyl)pyridin-2-yl)-1-methyl-6-oxo-1,4,5,6-tetrahydropyridazine-3-carboxamide]	> 45	1.78	–
N#Cc1ncc(C(=O)Nc2ccc(Cc3ccc(F)c(F)c3)cn2)cn1 [Compound 525]	> 45	0.55	–
CN1N=C(C(=O)Nc2cc(Cc3cccc(Cl)c3)cnc2N)CCC1=O [Compound 471]	> 45	> 45	–
CN1N=C(C(=O)Nc2ccc(COC3(C)CC3)cn2)CCC1=O [Compound 396]	> 45	> 45	–
O=C(Nc1ccc(Cc2ccc(F)c(F)c2)cn1)c1ncc(Br)cn1 [Compound 518]	> 45	1.7	–
Cn1nc(C(=O)Nc2nc(Cl)c(Cc3cccc(F)c3)s2)ccc1=O [Compound 232, N-(4-chloro-5-(3-fluorobenzyl)thiazol-2-yl)-1-methyl-6-oxo-1,6-dihydropyridazine-3-carboxamide]	0.14	0.07	–
CNCc1ccc(C(=O)Nc2ccc(Cc3cccc(Cl)c3)cn2)cn1 [Compound 289]	> 45	9.2	–
CC(=O)C1CN(C(=O)Nc2ccc(Cc3cccc(Cl)c3)cn2)C1 [Compound 403]	> 45	> 45	–
Cn1nc(C(=O)Nc2ccc(Cc3ccc(Cl)cc3)cn2)ccc1=O [Example 36, N-(5-(4-chlorobenzyl)pyridin-2-yl)-1-methyl-6-oxo-1,6-dihydropyridazine-3-carboxamide]	16.9	0.38	–
COc1ccc(Cc2ccc(NC(=O)c3ccc(=O)n(C)c3)nc2)cc1F [Example 49, N-(5-(3-fluoro-4-methoxybenzyl)pyridin-2-yl)-1-methyl-6-oxo-1,6-dihydropyridine-3-carboxamide]	> 45	–	21.2
Cn1nc(C(=O)Nc2ccc(Cc3cccc(F)c3F)cn2)ccc1=O [Compound 551]	> 45	1.2	–
CN1N=C(C(=O)Nc2ccc(NCc3cccc(F)c3)cn2)CCC1=O [Compound 281]	> 45	2.75	–
Cn1cc(C(=O)Nc2nnc(Cc3cccc(F)c3)s2)ccc1=O [Compound 461]	> 45	> 45	–
Cn1cc(C(=O)Nc2ccc(CNc3cccc(Cl)c3)cn2)ccc1=O [Compound 173, N-(5-((3-Chlorophenylamino)methyl)pyridin-2-yl)-1-methyl-6-oxo-1,6-dihydropyridine-3-carboxamide]	1.72	0.15	–
Cn1cc(C(=O)Nc2ccc(Oc3cccc(F)c3)cn2)ccc1=O [Compound 160, N-[5-(3-fluorophenoxy)pyridin-2-yl]-1-methyl-6-oxo-1,6-dihydropyridine-3-carboxamide]	> 45	–	–
CN1N=C(C(=O)Nc2ccc(Cc3ccccc3)nn2)CCC1=O [Compound 253]	–	4.75	–

SMILES	IC50 (human SCD1) [µM]	IC50 (human SCD5; [1]) [µM]	IC50 (human SCD5; SCD5 IC50) [µM]
N#Cc1ccc(C(=O)Nc2ccc(Cc3cccc(F)c3)cn2)nc1 [Compound 142, 5-cyano-N-(5-(3-fluorobenzyl)pyridin-2-yl)picolinamide]	> 45	–	–
CN1N=C(C(=O)Nc2ccc(Cc3cc(F)cc(F)c3)cn2)CCC1=O [Example 22, N-(5-(3,5-difluorobenzyl)pyridin-2-yl)-1-methyl-6-oxo-1,4,5,6-tetrahydropyridazine-3-carboxamide]	> 45	–	–
Cn1cc(C(=O)Nc2ccc(COc3cccc(Cl)c3)cn2)ccc1=O [Compound 263]	> 45	–	–
CN1N=C(C(=O)Nc2ccc(Cc3cc(F)cc(C#N)c3)cn2)CCC1=O [Example 26, N-(5-(3-cyano-5-fluorobenzyl)pyridin-2-yl)-1-methyl-6-oxo-1,4,5,6-tetrahydropyridazine-3-carboxamide]	> 45	–	–
COc1cccc(Cc2ccc(NC(=O)C3=NN(C)C(=O)CC3)nn2)c1 [Compound 182, N-(6-(3-methoxybenzyl)pyridazin-3-yl)-1-methyl-6-oxo-1,4,5,6-tetrahydropyridazine-3-carboxamide]	> 45	–	–
CN1N=C(C(=O)Nc2ccc(Cc3ccc4c(c3)COC4)cn2)CCC1=O [Example 19, N-(5-((1,3-dihydroisobenzofuran-5-yl)methyl)pyridin-2-yl)-1-methyl-6-oxo-1,4,5,6-tetrahydropyridazine-3-carboxamide]	> 45	–	–
CCn1cc(C(=O)Nc2ccc(Oc3cccc(F)c3)cn2)ccc1=O [Compound 164, 1-ethyl-N-[5-(3-fluorophenoxy)pyridin-2-yl]-6-oxo-1,6-dihydropyridine-3-carboxamide]	> 45	–	–
Cn1nc(C(=O)Nc2ccc(Oc3cccc(F)c3)cn2)ccc1=O [Compound 162, N-[5-(3-fluorophenoxy)pyridin-2-yl]-1-methyl-6-oxo-1,6-dihydropyridazine-3-carboxamide]	> 45	–	–
CN1N=C(C(=O)Nc2ccc(/C=C/c3cccc(Cl)c3)nn2)CCC1=O [Compound 418]	–	> 45	–
CN1N=C(C(=O)Nc2ccc(Cc3cccc(F)c3)nn2)CCC1=O [Compound 193, N-(6-(3-fluorobenzyl)pyridazin-3-yl)-1-methyl-6-oxo-1,4,5,6-tetrahydropyridazine-3-carboxamide]	> 45	–	–
CN1N=C(c2nc3cc(Cc4cccc(Cl)c4)cnc3[nH]2)CCC1=O [Compound 255]	–	4.74	–
CN1N=C(C(=O)Nc2ccc(Cc3cccc(C#N)c3)cn2)CCC1=O [Compound 8, N-(5-(3-cyanobenzyl)pyridin-2-yl)-1-methyl-6-oxo-1,4,5,6-tetrahydropyridazine-3-carboxamide]	> 45	–	–
CN1N=C(C(=O)Nc2ccc(Cc3ccccc3)cn2)CCC1=O [Compound 13, N-(5-benzylpyridin-2-yl)-1-methyl-6-oxo-1,4,5,6-tetrahydropyridazine-3-carboxamide]	> 45	–	–
CN1N=C(C(=O)Nc2ccc(Cc3ccc(F)cc3)cn2)CCC1=O [Example 17, N-(5-(4-fluorobenzyl)pyridin-2-yl)-1-methyl-6-oxo-1,4,5,6-tetrahydropyridazine-3-carboxamide]	> 45	–	–
Cc1nnc2ccc(C(=O)Nc3ccc(Cc4cccc(F)c4)cn3)cn12 [Compound 152, N-(5-(3-fluorobenzyl)pyridin-2-yl)-3-methyl-[1,2,4]triazolo[4,3-a]pyridine-6-carboxamide]	> 45	–	–

Continued, in another order:

IC50 (human SCD1) [µM]	IC50 (human SCD5; [1]) [µM]	SMILES	IC50 (human SCD5; SCD5 IC50) [µM]
16.4	0.66	Cn1nc(C(=O)Nc2ccc(Cc3cc(F)cc(F)c3)cn2)cc1O [Compound 325]	–
> 45	> 45	O=C(Nc1ccc(Cc2cccc(Cl)c2)cn1)N1CCC2(CC1)COC2 [Compound 393]	–
22.8	3.12	Cn1cc(NC(=O)N2CCC(Cc3cccc(Cl)c3)CC2)ccc1=O [Compound 308]	–
> 45	> 45	CN1N=C(C(=O)Nc2ncc(C(C)(O)c3cccc(F)c3)s2)CCC1=O (centres unmarked) [Compound 419]	–
> 45	> 45	CN1N=C(C(=O)Nc2ccc(CN3CCC(C)(C)CC3)cn2)CCC1=O [Compound 412]	–
6.6	0.22	N#Cc1ccc(C(=O)Nc2ccc(Cc3ccc(F)c(F)c3)cn2)cn1 [Compound 541]	–
0.023	0.016	O=C(Nc1ccc(Cc2cc(F)cc(F)c2)cn1)c1ccnnc1 [Compound 622]	–
1	0.01	Cn1nc(C(=O)Nc2ccc(Cc3cc(F)cc(C(F)F)c3)cn2)ccc1=O [Compound 562]	–
4.93	0.06	Cc1cnc(C(=O)Nc2ccc(Cc3cccc(F)c3)cn2)nc1 [Compound 139, N-(5-(3-fluorobenzyl)pyridin-2-yl)-5-methylpyrimidine-2-carboxamide]	–
7.61	1.4	Cn1cc(C(=O)Nc2ccc(Cc3cccc(Cl)c3)cn2)ncc1=O [Compound 108, N-(5-(3-chlorobenzyl)pyridin-2-yl)-4-methyl-5-oxo-4,5-dihydropyrazine-2-carboxamide]	–
0.83	0.23	Cc1ccc(NC(=O)c2ccc(Cc3cccc(F)c3)cn2)nn1 [Compound 126, 5-(3-Fluorobenzyl)-N-(6-methylpyridazin-3-yl)picolinamide]	–
0.075	0.017	O=C(Nc1ccc(Cc2cccc(Cl)c2)cn1)c1cncc(CO)c1 [Compound 483]	–
14.1	–	N#Cc1ccc(C(=O)Nc2ccc(Cc3cccc(F)c3)cn2)nc1 [Compound 135, 5-cyano-N-(5-(3-fluorobenzyl)pyridin-2-yl)picolinamide]	–
1.28	–	Cn1nc(C(=O)Nc2cnn(Cc3cccc(Cl)c3)c2)ccc1=O [Compound 215, N-(1-(3-chlorobenzyl)-1H-pyrazol-4-yl)-1-methyl-6-oxo-1,6-dihydropyridazine-3-carboxamide]	–
